Assay [1] addresses KRAS (Homo sapiens, UniProt P01116). Put plainly: Bio-layer interferometry, His-KRAS on Ni-NTA biosensors. Type of assay: binding. To be noted: BLI. As for the experimental part:
The interaction between KRAS and compound 0375-0604 was determined by bio-layer interferometry using an Octet Red 96 instrument (FortéBio Inc.). Ni-NTA Biosensors tips (FortéBio, Inc., Menlo Park, Calif.) were prewetted with PBS to establish a baseline before immobilization. His-KRAS was then immobilized onto Ni-NTA Biosensors. The experiments comprised five steps: (1) baseline acquisition, (2) KRAS loading onto the sensor, (3) second baseline acquisition, (4) association of compound 0375-0604 for the measurement of kon, and (5) dissociation of compound 0375-0604 for the measurement of koff. Six concentrations of compound 0375-0604 were used for detection. The association and dissociation plot and kinetic constants were obtained with FortéBio data analysis software. Equilibrium dissociation constants (Kd) were calculated in the ratio of koff to kon.
Bio-layer interferometry assay (BLI), a label-free technology, was used to measure the biomolecular interaction between KRAS and compound 0375-0604. In this study, the His-labeled KRAS protein was immobilized on the Ni-NTA (NTA) Biosensors. […] Experimental data for association and dissociation are represented on the left and right side.
(BLI is a label-free optical method that tracks binding on a fibre tip over time.)

For assay [2], the system named is H358 cells. Put plainly: MTT cell viability assay, H358. Type of assay: cell-based. The note with it: Homo sapiens, NCI-H358, H358 (KRAS G12C). As for the experimental part: (§1) H2122, H460 and H358 cells were purchased from ATCC and cultivated with Roswell Park Memorial Institute (RPMI) 1640 medium supplemented with 10% fetal bovine serum (Gibco, Big Cabin, Oklahoma, Me., USA), 100 U/mL penicillin and 100 μg/mL streptomycin (Gibco, Big Cabin, Oklahoma, Me., USA). All the cells were cultivated at 37° C. with 5% CO2 incubator. Cells were seeded on a 96-well microplate with 3000, 4000 or 5000 cells/well, and were cultured overnight for cell adhesion. Different concentrations of compound 0375-0604 were added to the microplates, and the plates were incubated for 24, 48 or 72 h. Each dosage was repeated as triplicate. 10 μL MTT (5 mg/mL) solution was added to every well. After incubation for 4 h, 100 μL dimethyl sulfoxide (DMSO) was added to each well. After shaking for 15 min, the absorbance of the plate was measured at 570 nm (absorbance) and 650 nm (reference) by a microplate reader (Tecan, Morrisville, N.C., USA).
(§2) The cytotoxicity of compound 0375-0604 was determined by MTT assay. The effect of compound 0375-0604 on three NSCLC cell lines, H2122, H358 and H460 was examined. H2122, H358 and H460 are harboring KRAS-activating mutations. H2122 and H358 cells have mutant KRAS that includes an amino acid substitution from a glycine to a cysteine at codon or position 12 (i.e. mutant KRAS ^G12C). H460 cells have mutant KRAS that includes an amino acid substitution from a glutamine to a histidine at codon or position 61 (i.e. mutant KRAS Q61H).
(§3) Cells were incubated with compound 0375-0604 at different concentrations (0, 25, 50, 100 μM) for 24, 48, and 72 h. As shown in FIGS. 3A-3C, the cell viability of three NSCLC cell lines was decreased by the treatment of compound 0375-0604 in a dose-dependent and time-dependent manner.
(In general: Formazan colour is commonly taken as a measure of viable cells.)

In assay [3] the test system is H2122 cells. Put plainly: MTT cell viability assay, H2122. Type of assay: cell-based. To be noted: Homo sapiens, NCI-H2122, H2122 (KRAS G12C). As to the method: as §1, §2, §3
Assay [4] has as its system H460 cells. Briefly: MTT cell viability assay, H460. It counts as cell-based. To be noted: Homo sapiens, NCI-H460, H460 (KRAS Q61H). As for the experimental part:
as §1, §2, §3

Assay [5] has as its system phosphorylation of CRAF (p-CRAF). Put plainly: Western blot of KRAS downstream signaling. Type of assay: cell-based. The note with it: H2122, H460 and H358 cells, 24, 48 and 72 h, versus untreated cells. As for the experimental part:
After treatment with compound 0375-0604 for 24 h, 48 h or 72 h, radioimmunoprecipitation assay (RIPA) lysis buffer which contains protease and phosphatase inhibitors, was added to extract the whole cell protein. Bio-Rad DC™ protein assay kit (Bio-Rad, Philadelphia, Pa., USA) was used to quantify the protein. 30 μg protein lysate were loaded and separated by 10% sodium dodecyl sulfate (SDS)-polyacrylamide gel electrophoresis and transferred to a nitrocellulose (NC) membrane. The membranes were incubated with the primary antibody (1:2000) and then with a fluorescence-conjugated secondary antibody (1:10000). Glyceraldehyde 3-phosphate dehydrogenase (GAPDH) was used as the loading control for normalization. The signal of the membranes was scanned with a LI-COR Odyssey Scanner (Belfast, Me., USA).
Untreated cells were used as control.
(In general: In western blotting, separated proteins are transferred to a membrane and probed.)

Assay [6] concerns GTP-bound KRAS. Briefly: RAS-binding domain pull-down (RBD:PD) assay. It counts as cell-based. The note with it: H358 cells, 24 h, 50 and 100 μM. As for the experimental part:
RAS activity was detected using the RAS Activation Assay Kit from Upstate-Millipore. The whole cell lysates were incubated with Glutathione S-transferase-[…]-binding domain (GST-RBD) and glutathione beads for 1 h. Agarose beads were pelleted by centrifugation and washed 3 times with Mg^2+ lysis buffer. Agarose beads were re-suspended in loading buffer. Samples were analyzed by the western blotting as previously described and blots probed using anti-KRAS antibody (sc-30, SANTA).
KRAS mutant cells (H358) were treated with compound 0375-0604 for 24 h. After 24 h treatment, cells were collected and determined by a RAS-binding domain pull-down (RBD:PD) assay and immunoblotting with a KRAS-specific antibody.

Assay [7] has as its system H358 cells. Put plainly: Cell cycle analysis by PI staining and flow cytometry. It counts as cell-based. To be noted: H358 cells, 50, 100 μM, 24 h. As for the experimental part: H358 cells were plated with 2.0×10^5 cells/well at a 6-well plate and cultured overnight for attachment. After treatment with compound 0375-0604 at 0, 50, 100 μM for 24 h, all cells were harvested by trypsin, and centrifuged at 1000 rpm, at room temperature for 5 min. Cells pellets were re-suspended in 70% ethanol at 4° C. for 30 min. Cells were centrifuged at 1000 rpm for 5 min to remove all the ethanol. Each cell pellet was re-suspended in 300 μL Propidium iodide (PI) staining solution at 37° C. for 30 min in the dark. The cells were then washed twice with phosphate-buffered saline (PBS). Finally, cells were re-suspended in 300 μL PBS and transferred to the flow cytometer (BD FACS Aria III).
H358 cells were treated with compound 0375-0604 at different concentrations (0, 50, 100 μM) for 24 h, and stained with Propidium iodide (PI). The samples were analyzed by flow cytometry.

We go through one molecule from patent US9884046B1, “Method of treating lung cancer” (Macau University of Science and Technology, priority 2017, dated 2018).

A value given as a limit tells only on which side of the number the result lay.

Sequence of KRAS (P01116 1-188 isoform P01116-2): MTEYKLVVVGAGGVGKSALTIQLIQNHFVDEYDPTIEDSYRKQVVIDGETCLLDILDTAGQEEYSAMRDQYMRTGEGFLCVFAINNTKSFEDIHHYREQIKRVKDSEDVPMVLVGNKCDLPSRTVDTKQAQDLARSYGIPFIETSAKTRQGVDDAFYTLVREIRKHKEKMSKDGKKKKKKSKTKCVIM

In the case of `Nc1ccc(Sc2nc3ccccc3s2)c(Cl)c1` [compound 0375-0604], in assay [1] (1.56-50 μM compound), the koff was 2.12E-01 S^−1. This molecule also gave a kon in assay [1] (1.56-50 μM compound) of 1.83E+04 M^−1 S^−1. In assay [1] (calculated as ratio of koff to kon), the Kd is 11.6 µM. For the same molecule, the IC50 in assay [2] (24 h) was more than 100 µM; in assay [2] (48 h), more than 100 µM; in assay [2] (72 h), 63.8 ± 3.89 µM; in assay [3] (24 h) it was more than 100 µM; in assay [3] (48 h) it was more than 100 µM; in assay [3] (72 h), 39.6 ± 3.09 µM. The IC50 is more than 100 µM in assay [4] (24 h), 100 ± 13.3 µM in assay [4] (48 h) and 66 ± 11.8 µM in assay [4] (72 h). Also, the “level of phosphorylation of CRAF (p-CRAF)” value in assay [5] is reported as “decreased”. For the same molecule, in assay [6], the “level of GTP-bound KRAS” value is reported as “inhibited”. Moreover, in assay [7], the “percentage of cells in G0/G1 phase” value was “slightly decreased”. Moreover, the “percentage of cells in G2/M phase” value in assay [7] is given as “increased”.

The Kd is the concentration at which binding is half-saturated. For orientation: IC50 means the midpoint of a concentration-inhibition curve. The low end stands for inhibition by little substance, the high end for a need for much substance.
